These are literature values, as cited in patent US20070154533A1, “Method of increasing testosterone and related steriod concentrations in women” (priority 2005, published 2007).

Structures are written as SMILES. Read-outs that look alike come from different tables or passages of the source.

The conditions of data set [1]: patch delivering 150 ug/day, HIV-infected women, over 12 weeks.
The conditions of data set [2]: for Mean (±SD) serum free testosterone concentration: transdermal patch, 12 weeks, oophorectomized women on conjugated equine estrogens.
For data set [3] the following is noted: circulating testosterone.
Data set [4] has as its target T1, sex hormone binding globulin (Homo sapiens, UniProt P04278).
T1 sequence (P04278 30-402): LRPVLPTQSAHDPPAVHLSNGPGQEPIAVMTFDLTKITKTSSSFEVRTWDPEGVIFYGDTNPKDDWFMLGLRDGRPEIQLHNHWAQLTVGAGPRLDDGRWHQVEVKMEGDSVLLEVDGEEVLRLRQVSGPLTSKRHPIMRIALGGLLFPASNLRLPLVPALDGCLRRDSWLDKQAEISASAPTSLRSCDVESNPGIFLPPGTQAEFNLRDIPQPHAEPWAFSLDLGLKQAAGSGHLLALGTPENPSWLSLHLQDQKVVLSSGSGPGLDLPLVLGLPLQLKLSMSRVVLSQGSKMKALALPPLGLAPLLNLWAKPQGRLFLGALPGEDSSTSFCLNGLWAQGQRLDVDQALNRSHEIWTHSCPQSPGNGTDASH
Conditions: in women.

The next data set addresses albumin (Homo sapiens, UniProt P02768). Particulars: in women.

Sequence of albumin (P02768 25-609): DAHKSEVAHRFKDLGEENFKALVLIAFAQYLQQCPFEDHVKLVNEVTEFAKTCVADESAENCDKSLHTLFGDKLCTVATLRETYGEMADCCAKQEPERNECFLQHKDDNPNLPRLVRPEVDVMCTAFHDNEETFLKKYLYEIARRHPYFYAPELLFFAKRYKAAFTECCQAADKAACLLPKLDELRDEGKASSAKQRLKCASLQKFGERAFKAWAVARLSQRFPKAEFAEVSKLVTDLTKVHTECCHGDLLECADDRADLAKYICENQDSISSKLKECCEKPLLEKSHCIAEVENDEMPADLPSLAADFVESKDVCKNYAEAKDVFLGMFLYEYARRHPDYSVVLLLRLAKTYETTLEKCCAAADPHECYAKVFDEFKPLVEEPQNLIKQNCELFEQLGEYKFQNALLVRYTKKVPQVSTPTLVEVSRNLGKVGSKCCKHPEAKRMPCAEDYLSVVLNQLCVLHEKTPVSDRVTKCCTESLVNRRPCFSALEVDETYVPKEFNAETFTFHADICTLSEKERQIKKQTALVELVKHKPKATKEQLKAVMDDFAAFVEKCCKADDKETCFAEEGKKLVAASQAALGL

On to `C[C@]12CC[C@H]3[C@@H](CCC4=CC(=O)CC[C@@]43C)[C@@H]1CC[C@@H]2O` [Testosterone, testosterone], for which, in data set [1], the “Increase in body weight” value is given as 4%. In addition, the “Scores on the telephone-based diary” value in data set [2] (higher dose) is given as “did not increase significantly”. The “Psychological Well-Being Index positive-well-being, depressed-mood, and composite scores” value in data set [2] (higher dose vs placebo) was “improved at the higher dose”. Further, the “Percentages of women who had sexual fantasies, masturbated, or engaged in sexual intercourse at least once a week” value in data set [2] (higher dose, vs base line) is recorded as “increased two to three times from base line”. In addition, the “Brief Index of Sexual Functioning for Women scores” value in data set [2] (higher testosterone dose (300 μg per day), P=0.03 vs placebo) is “further increases in scores for frequency of sexual activity and pleasure-orgasm”. The “Mean (±SD) serum free testosterone concentration” value in data set [2] (160 μg of testosterone per day) was 3.9 ± 2.4 pg/mL; in data set [2] (300 μg of testosterone per day), 4.9 ± 4.8 pg/mL. Moreover, the “Bound to protein in the blood” value in data set [3] is recorded as 98%. Moreover, the “Binding to sex hormone binding globulin” value in data set [4] is on record as “approximately 65%”. For the same compound, the “Bound weakly to albumin” value at albumin is on record as 33%.
